Measured values: ChEMBL document CHEMBL1201862, “PubChem BioAssay data set” (2004)
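Growth conditions: 96-well plates. Treatment: test compound, 48 hours, 5 concentrations. Analysis: linear interpolation between bracketing concentrations; unreached endpoints set to highest concentration. Abbreviation: GI50, concentration required for 50% inhibition of growth.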 The source made the active and inactive calls. No stated cut-off is given here; in the data, active = GI50 up to about 1.1 µM and inactive = higher.

Assays:
Assay in all cases: inhibition of tumour cell growth, NCI panel, 48 h
[1] = test system: OVCAR-3
[2] = test system: MDA-MB-231
[3] = test system: DU-145
[4] = test system: MDA-N
[5] = test system: COLO 205
[6] = test system: NCI-H522
[7] = test system: NCI-H226
[8] = test system: SW-620
[9] = test system: SK-OV-3
[10] = test system: RXF 393
[11] = test system: SK-MEL-5
[12] = test system: UACC-62
[13] = test system: NCI-H23
[14] = test system: HOP-92
[15] = test system: UO-31
[16] = test system: SNB-19
[17] = test system: KM12
[18] = test system: SK-MEL-28
[19] = test system: M14
[20] = test system: SK-MEL-2
[21] = test system: HOP-62
[22] = test system: SF-539
[23] = test system: HCT-15
[24] = test system: OVCAR-5
[25] = test system: SR
[26] = test system: CAKI-1
[27] = test system: MDA-MB-435
[28] = test system: OVCAR-8
[29] = test system: ACHN
[30] = test system: Hs-578T
[31] = test system: K562
[32] = test system: UACC-257
[33] = test system: MCF7
[34] = test system: PC-3
[35] = test system: T47D
[36] = test system: MOLT-4
[37] = test system: LOX IMVI
[38] = test system: CCRF-CEM
[39] = test system: SF-295
[40] = test system: TK-10
[41] = test system: Malme-3M
[42] = test system: EKVX
[43] = test system: HL-60
[44] = test system: OVCAR-4
[45] = test system: IGROV-1
[46] = test system: SNB-75
[47] = test system: 786-0
[48] = test system: A549
[49] = test system: SF-268
[50] = test system: HCC 2998
[51] = test system: NCI/ADR-RES
[52] = test system: A498
[53] = test system: NCI-H460
[54] = test system: U-251
[55] = test system: RPMI-8226
[56] = test system: HT-29
[57] = test system: BT-549
[58] = test system: HCT-116
[59] = test system: SN12C

`CN(C)/N=C1\C=C2CC[C@H](O[Si](C)(C)C(C)(C)C)[C@@]2(C)CC1` was tested, and the GI50 [1] was 14.5 µM (inactive), the GI50 [2] was 16.6 µM (inactive) and the GI50 [3] was 15.8 µM (inactive). For the same compound, the GI50 [4] was 19.9 µM (inactive), the GI50 [5] was 16.9 µM (inactive) and the GI50 [6] was 10.4 µM (inactive). The GI50 [7] was 20.3 µM (inactive), the GI50 [8] was 17.5 µM (inactive) and the GI50 [9] was 24.9 µM (inactive). For the same compound, the GI50 [10] was 14.2 µM (inactive), the GI50 [11] was 12.4 µM (inactive) and the GI50 [12] was 15.1 µM (inactive). For the same compound, the GI50 [13] was 23.2 µM (inactive), the GI50 [14] was 15.2 µM (inactive) and the GI50 [15] was 16.3 µM (inactive). The GI50 [16] was 17.7 µM (inactive), the GI50 [17] was 16.4 µM (inactive) and the GI50 [18] was 15.9 µM (inactive). For the same compound, the GI50 [19] was 18.2 µM (inactive), the GI50 [20] was 16.2 µM (inactive) and the GI50 [21] was 17.9 µM (inactive). The GI50 [22] was 26.2 µM (inactive), the GI50 [23] was 17.6 µM and the GI50 [24] was 16.9 µM (inactive). For the same compound, the GI50 [25] was 18.6 µM (inactive), the GI50 [26] was 14.3 µM (inactive) and the GI50 [27] was 16.4 µM (inactive). For the same compound, the GI50 [28] was 16.9 µM (inactive), the GI50 [29] was 16.5 µM (inactive) and the GI50 [30] was 18.1 µM (inactive). For the same compound, the GI50 [31] was 15.5 µM (inactive), the GI50 [32] was 16.7 µM (inactive) and the GI50 [33] was 15.6 µM (inactive). For the same compound, the GI50 [34] was 14.1 µM (inactive), the GI50 [35] was 12.2 µM (inactive) and the GI50 [36] was 12.9 µM (inactive). For the same compound, the GI50 [37] was 18.3 µM (inactive), the GI50 [38] was 11.8 µM (inactive) and the GI50 [39] was 16.4 µM (inactive). The GI50 [40] was 19.7 µM (inactive), the GI50 [41] was 15.6 µM (inactive) and the GI50 [42] was 21.7 µM (inactive). The GI50 [43] was 7.93 µM (inactive), the GI50 [44] was 14.9 µM (inactive) and the GI50 [45] was 21.7 µM (inactive). The GI50 [46] was 16.3 µM (inactive), the GI50 [47] was 18 µM (inactive) and the GI50 [48] was 19.5 µM (inactive). The GI50 [49] was 19.7 µM (inactive), the GI50 [50] was 16.9 µM (inactive) and the GI50 [51] was 18.2 µM (inactive). The GI50 [52] was 17.8 µM (inactive), the GI50 [53] was 17.3 µM (inactive) and the GI50 [54] was 16.2 µM (inactive). The GI50 [55] was 4.4 µM (inactive) and the GI50 [56] was 19 µM (inactive).

With `Oc1cc(O)cc(-c2nc3cc(F)ccc3s2)c1` the GI50 [1] was 22.6 µM (inactive), the GI50 [2] was 25.6 µM (inactive) and the GI50 [3] was 32.8 µM (inactive). For the same compound, the GI50 [4] was 30.5 µM (inactive), the GI50 [5] was 21 µM (inactive) and the GI50 [6] was 18.7 µM (inactive). For the same compound, the GI50 [7] was 25.8 µM (inactive), the GI50 [8] was 38.1 µM (inactive) and the GI50 [9] was 25.8 µM (inactive). For the same compound, the GI50 [10] was 22.7 µM (inactive), the GI50 [11] was 17.5 µM (inactive) and the GI50 [12] was 21.1 µM (inactive). The GI50 [13] was 26.4 µM (inactive), the GI50 [57] was 20.2 µM (inactive) and the GI50 [15] was 24 µM (inactive). For the same compound, the GI50 [16] was 23.7 µM (inactive), the GI50 [17] was 20.4 µM (inactive) and the GI50 [18] was 48.8 µM (inactive). For the same compound, the GI50 [19] was 19.4 µM (inactive), the GI50 [20] was 22.7 µM (inactive) and the GI50 [22] was 29 µM (inactive). The GI50 [23] was 19.7 µM, the GI50 [24] was 20.8 µM (inactive) and the GI50 [26] was 25.5 µM (inactive). For the same compound, the GI50 [27] was 30.5 µM (inactive), the GI50 [28] was 22.6 µM (inactive) and the GI50 [29] was 24.7 µM (inactive). The GI50 [32] was 16.4 µM (inactive), the GI50 [33] was 20.3 µM (inactive) and the GI50 [58] was 24.5 µM (inactive). The GI50 [34] was 25.1 µM (inactive), the GI50 [35] was 17.5 µM (inactive) and the GI50 [37] was 18.5 µM (inactive). The GI50 [38] was 27.5 µM (inactive), the GI50 [39] was 17.8 µM (inactive) and the GI50 [40] was 30.3 µM (inactive). For the same compound, the GI50 [41] was 31.6 µM (inactive), the GI50 [44] was 18.5 µM (inactive) and the GI50 [45] was 27.7 µM (inactive). The GI50 [59] was 29.4 µM (inactive), the GI50 [47] was 20.6 µM (inactive) and the GI50 [48] was 26.1 µM (inactive). The GI50 [49] was 19.4 µM (inactive), the GI50 [51] was 36.8 µM (inactive) and the GI50 [52] was 18.5 µM (inactive). For the same compound, the GI50 [53] was 22.8 µM (inactive), the GI50 [54] was 22.8 µM (inactive) and the GI50 [55] was 18.5 µM (inactive). The GI50 [56] was 21.4 µM (inactive).
